Measured values as given in patent publication US20250206704A1, “ENGINEERED IONOPHORES FOR TRANSPORT OF METAL IONS” (The Brigham and Women's Hospital, Inc., priority 2022, published 2025).
In brackets after ≈: the same amount, converted by molar mass. Read-outs that look alike come from different tables or passages of the source.

Experiments:
Type in all cases: cell-based
[1] = system: Staphylococcus epidermidis; test: MIC, broth microdilution
Text: (§1) Next, Applicants evaluated the antibacterial activities of the ionophores. First, Applicants determined their minimum inhibitory concentration (MIC) in the gram-positive bacterium that causes hospital-acquired infections, Staphylococcus epidermidis.
Applicants reasoned that limiting extracellular zinc with EDTA would abolish ionophore activity by depleting the available metal ions for membrane transport. […] [24]
(§2) Staphylococcus epidermidis ATCC® 12228™, Staphylococcus caprae ATCC® 51549™, Bacillus subtilis ATCC® 6051™, and Bacillus cereus ATCC® 14579™ were grown in cation-adjusted Mueller-Hinton broth (CA-MHB) (catalog no. 90922, Sigma) as per the Clinical and Laboratory Standards Institute guidelines.2 Bacteria were routinely grown at 37° C. under aerobic conditions.
(§3) The MIC assay was performed according to the Clinical and Laboratory Standards Institute protocols.^3 The antibacterial activities of the compounds were measured using the broth microdilution method. Serial dilutions of compounds were prepared in cation-adjusted Müller Hinton Broth. Each dilution (100 μL) was dispensed to each well of a round-bottom plate to obtain final concentrations ranging from 0.07815-40 μM. Bacteria were grown at 37° C. overnight on cation-adjusted Müller Hinton Broth. The bacterial solution was prepared in 0.9% saline and adjusted to obtain an OD600=0.1 using a SpectraMax M5 (Molecular Devices). The resultant suspension was diluted 1:20 with cation-adjusted Müller Hinton Broth. The resulting mixture (10 μL) was added to each well of the plates (approximately 5×10^4 CFU/well), mixed, and incubated at 37° C. for 24 h. The MIC value was determined as the minimum concentration that inhibited the growth of bacteria.

U2OS cells [2] = test: Zinc imaging assay (DA-ZP1 fluorescence) of ionophore activity in U2OS cells; conditions: for ionophore activity (DA-ZP1 fluorescence): U2OS cells, 10 μM Zn(II) and 5 μM compound
Text: A number of bispicolyl-based Zn^II-chelators were synthesized with increasing size at the ortho-position of phenolic OH by a one-step reductive amination between bispicolyl-amine and commercially available 3-substituted salicylaldehydes. Applicants examined the ionophore activity of bispicolyl analogs with methyl (Me, 2), isopropyl (iPr, 3), and tert-butyl (tBu, 4) substitutions (FIG. 1A). […] [13] The cells were first treated with ZnCl2 and ionophore candidates followed by DA-ZP1 treatment and fluorescence measurement.
Applicants experimentally determined the ionophore activity of these silyl-based compounds using the aforementioned DAZ-P1 assay in U2OS cells.
Applicants also determined metal-ion interference of the silyl-based ionophores with focused efforts on 8. Applicants designed a competition assay wherein Applicants pre-treated equimolar amounts of various metal ions, Mg^II, Ca^II, Mn^II, Fe^II, and Na^I, with 10 μM of Zn^II for 1 hour before treatment with DA-ZP1.
Finally, Applicants compared the activity of the designed compounds against known ionophores (FIGS. 2 and 11). […] [16]
In a 96-well plate, 20,000 U2OS cells were plated per well and cultured for 24 h in the incubator set to 37° C. with 5% CO2. […] The medium containing the compound was removed, and the cells were washed with 3×100 μL of fresh medium, and finally another 100 μL of 2 μM of DA-ZP1 was added to the corresponding cell culture medium containing HCS NuclearMask Blue Stain. The cells were again kept for 1 h in the incubator. The medium containing compound was removed, and the cells were washed with 1×100 μL of PBS and 2×100 μL of fresh medium, and finally, another 100 μL of fresh, dye-free medium was added. The cells were immediately imaged using a high-content fluorescence microscope (Operetta Phenix) in both the DAPI and FITC channels at 20× magnification. Images were analyzed using the Harmony software, and data were plotted using GraphPad Prism 9.

U2OS cells [3] = test: ICP-MS analysis of intracellular Zn(II) in U2OS cells; conditions: 10 μM Zn(II) and 5 μM compound, 1 hour
Method: Next, Applicants used inductively coupled plasma mass spectrometry (ICP-MS) to validate the imaging assay and the ionophores activity (FIG. 1F). While the intracellular Zn^II levels where similar between DMSO and chelator 1, Zn^II concentrations inside cells were 3-fold higher when Applicants co-treated ionophores 8 and 9.
U2OS cells (˜200,000) were plated in a 6-well dish. After a day, the medium was aspirated, and Zn(II) (10 μM) and compounds (5 μM) containing media (2 mL) were added to each appropriate well. Cells were harvested by first washing each well with PBS containing EDTA (100 μM, 2×2.0 mL) and subsequently adding Milli-Q water ([…] to each well and incubating for 2-4 min. A portion of the resulting cell lysate (900 μL) was collected and transferred to an Eppendorf Safe-Lock tube, snap-frozen in N2(l), and then thawed at room temperature (RT) for a total of three freeze-thaw cycles. The insoluble lysate was pelleted (10 min at 10,000 g), and the soluble protein concentration of each sample was determined using the Pierce 660 nm Protein Assay in a 96-well plate (200 μL of reagent, 14 μL of sample, bovine serum albumin standard curve). Samples were then frozen and lyophilized overnight, and the resulting white, flaky solid was taken up in concentrated nitric acid (200 μL, ultrapure for trace metal analysis, BDH Aristar) and heated at 70° C. for 1 h. A portion of each sample (142 μL) was then diluted with water (2 mL) and a terbium internal standard (Agilent 5190-8590; stock at 10,000 parts per billion [ppb] in 10% nitric acid diluted to 100 ppb in Milli-Q water for addition to samples, 2 ppb final concentration), after which the metal content of the samples was assessed by ICP-MS. […] Therefore, 1 ppb was taken to be equal to 1 μg/L, and the molarity of a particular solution was considered equal to the measured concentration of a particular ion in ppb, divided by the molecular weight of the ion, multiplied by 10-6.

Staphylococcus caprae = test: MIC, broth microdilution; conditions: Table 4, read-out: Strain MIC S. caprae
Method: as §1, §2, §3

Bacillus cereus = test: MIC, broth microdilution; conditions: Table 4, read-out: Strain MIC B. cereus
Method: as §1, §2, §3

Bacillus subtilis = test: MIC, broth microdilution; conditions: Table 4, read-out: Strain MIC B. subtilis
Method: as §1, §2, §3

[4] = Table 4, read-out: Strain MIC S. epidermidis

SMILES | MIC [1, 4] [µg/mL] | MIC ([1]; read-out: MIC) [µg/mL] | ionophore activity (DA-ZP1 fluorescence) (U2OS cells [2]) | metal-ion interference with ionophore activity (average fluorescence intensity) (U2OS cells [2]; competition: 10 μM Mg^II, Ca^II, Mn^II, Fe^II or Na^I with 10 μM Zn^II and 10 μM compound) | intracellular Zn^II level relative to DMSO (U2OS cells [3]) [fold] | MIC (Staphylococcus caprae) [µg/mL] | MIC (Bacillus cereus) [µg/mL] | MIC (Bacillus subtilis) [µg/mL] | change of MIC with additional Zn^II in the media [1] | change of MIC in presence of EDTA ([1]; 50 μM EDTA)
CC(C)(C)[Si](C)(C)c1cccc(CN(Cc2ccccn2)Cc2ccccn2)c1O [Compound 8, 2-((bis(pyridin-2-ylmethyl)amino)methyl)-6-(tert-butyldimethylsilyl)phenol] | 4.2 (≈ 10 µM) | ~4.2 (≈ 10 µM) | improved ionophore activity | did not observe significant drops in average fluorescence intensity for most metal ions | 3 | 1.1 (≈ 2.62 µM) | 4.2 (≈ 10 µM) | 4.2 (≈ 10 µM) |  | 
CC(C)[Si](c1cccc(CN(Cc2ccccn2)Cc2ccccn2)c1O)(C(C)C)C(C)C [Compound 9, 2-((bis(pyridin-2-ylmethyl)amino)methyl)-6-(triisopropylsilyl)phenol] | 1.2 (≈ 2.6 µM) | ~1.2 (≈ 2.6 µM) | improved ionophore activity |  | 3 | 0.3 (≈ 0.65 µM) | 1.2 (≈ 2.6 µM) | 1.2 (≈ 2.6 µM) | unaltered | dramatically increased
